{"source": "PubChem BioAssay AID1259407", "about": "(Chemical Carcinogenesis Research Information System (CCRIS), 2018)", "system": "CCRIS mutagenicity, Ames/micronucleus/aberration tests", "test": "CCRIS mutagenicity studies", "key": {"[1]": {"details": "Test System: AMES SALMONELLA TYPHIMURIUM, Strain/Indicator: TA98, Metabolic Activation: NONE, Method: PREINCUBATION"}, "[2]": {"details": "Test System: AMES SALMONELLA TYPHIMURIUM, Strain/Indicator: TA100, Metabolic Activation: NONE, Method: STANDARD PLATE"}, "[3]": {"details": "Test System: AMES SALMONELLA TYPHIMURIUM, Strain/Indicator: TA97, Metabolic Activation: NONE, Method: PREINCUBATION"}, "[4]": {"details": "Test System: AMES SALMONELLA TYPHIMURIUM, Strain/Indicator: TA98, Metabolic Activation: NONE, Method: STANDARD PLATE"}}, "note": "The source made the active and inactive calls. The rule behind the calls is not given here."}
{"compound": "O=C(OC1CCCCC1)c1ccccc1C(=O)OC1CCCCC1", "values": [{"measurement": "mutagenic call", "setting": "Test System: AMES SALMONELLA TYPHIMURIUM, Strain/Indicator: TA98, Metabolic Activation: HAMSTER, LIVER, S-9, AROCLOR 1254 (10%), Method: PREINCUBATION", "value": "inactive; negative"}, {"measurement": "mutagenic call", "setting": "[1]", "value": "inactive; negative"}, {"measurement": "mutagenic call", "setting": "Test System: AMES SALMONELLA TYPHIMURIUM, Strain/Indicator: TA98, Metabolic Activation: RAT, LIVER, S-9, AROCLOR 1254 (10%), Method: PREINCUBATION", "value": "inactive; negative"}, {"measurement": "mutagenic call", "setting": "Test System: AMES SALMONELLA TYPHIMURIUM, Strain/Indicator: TA100, Metabolic Activation: HAMSTER, LIVER, S-9, AROCLOR 1254 (10%), Method: PREINCUBATION", "value": "inactive; negative"}, {"measurement": "mutagenic call", "setting": "Test System: AMES SALMONELLA TYPHIMURIUM, Strain/Indicator: TA100, Metabolic Activation: NONE, Method: PREINCUBATION", "value": "inactive; negative"}, {"measurement": "mutagenic call", "setting": "Test System: AMES SALMONELLA TYPHIMURIUM, Strain/Indicator: TA100, Metabolic Activation: RAT, LIVER, S-9, AROCLOR 1254 (10%), Method: PREINCUBATION", "value": "inactive; negative"}, {"measurement": "mutagenic call", "setting": "Test System: AMES SALMONELLA TYPHIMURIUM, Strain/Indicator: TA1535, Metabolic Activation: HAMSTER, LIVER, S-9, AROCLOR 1254 (10%), Method: PREINCUBATION", "value": "inactive; negative"}, {"measurement": "mutagenic call", "setting": "Test System: AMES SALMONELLA TYPHIMURIUM, Strain/Indicator: TA1535, Metabolic Activation: NONE, Method: PREINCUBATION", "value": "inactive; negative"}, {"measurement": "mutagenic call", "setting": "Test System: AMES SALMONELLA TYPHIMURIUM, Strain/Indicator: TA1535, Metabolic Activation: RAT, LIVER, S-9, AROCLOR 1254 (10%), Method: PREINCUBATION", "value": "inactive; negative"}, {"measurement": "mutagenic call", "setting": "Test System: AMES SALMONELLA TYPHIMURIUM, Strain/Indicator: TA1537, Metabolic Activation: HAMSTER, LIVER, S-9, AROCLOR 1254 (10%), Method: PREINCUBATION", "value": "inactive; negative"}, {"measurement": "mutagenic call", "setting": "Test System: AMES SALMONELLA TYPHIMURIUM, Strain/Indicator: TA1537, Metabolic Activation: NONE, Method: PREINCUBATION", "value": "inactive; negative"}, {"measurement": "mutagenic call", "setting": "Test System: AMES SALMONELLA TYPHIMURIUM, Strain/Indicator: TA1537, Metabolic Activation: RAT, LIVER, S-9, AROCLOR 1254 (10%), Method: PREINCUBATION", "value": "inactive; negative"}]}
{"compound": "Nc1cc(N)cc(Cl)c1", "values": [{"measurement": "mutagenic call", "setting": "End Point: IN VITRO CHROMOSOMAL ABERRATIONS, Test System: CHL CELLS, Metabolic Activation: RAT, LIVER, S-9, SODIUM PHENOBARBITAL AND 5,6-BENZOFLAVONE", "value": "active; positive (structural changes)"}, {"measurement": "mutagenic call", "setting": "Test System: UDS RODENT HEPATOCYTES, Strain/Indicator: THY INCORP (NON-S-PHASE), Metabolic Activation: NONE, Method: AUTORADIOGRAPHY", "value": "active; positive"}]}
{"compound": "CN(C)C(=S)S", "values": [{"measurement": "mutagenic call", "setting": "[2]", "value": "active; positive"}, {"measurement": "mutagenic call", "setting": "Test System: AMES SALMONELLA TYPHIMURIUM, Strain/Indicator: TA100, Metabolic Activation: S-9 MIX, Method: STANDARD PLATE", "value": "inactive; negative"}]}
{"compound": "CCCCCC[C@H](C/C=C\\CCCCCCCC(=O)OC)OC(C)=O", "values": [{"measurement": "mutagenic call", "setting": "[3]", "value": "inactive; negative"}, {"measurement": "mutagenic call", "setting": "Test System: AMES SALMONELLA TYPHIMURIUM, Strain/Indicator: TA97, Metabolic Activation: RAT, LIVER, S-9, AROCLOR 1254, Method: PREINCUBATION", "value": "inactive; negative"}, {"measurement": "mutagenic call", "setting": "Test System: AMES SALMONELLA TYPHIMURIUM, Strain/Indicator: TA102, Metabolic Activation: NONE, Method: PREINCUBATION", "value": "inactive; negative"}, {"measurement": "mutagenic call", "setting": "Test System: AMES SALMONELLA TYPHIMURIUM, Strain/Indicator: TA102, Metabolic Activation: RAT, LIVER, S-9, AROCLOR 1254, Method: PREINCUBATION", "value": "inactive; negative"}]}
{"compound": "O=[N+]([O-])c1ccc2c3c(cccc13)CC2", "values": [{"measurement": "mutagenic call", "setting": "[4]", "value": "active; positive"}, {"measurement": "mutagenic call", "setting": "Test System: AMES SALMONELLA TYPHIMURIUM, Strain/Indicator: TA98, Metabolic Activation: RAT, LIVER, S-9, AROCLOR 1254, Method: STANDARD PLATE", "value": "active; positive"}, {"measurement": "mutagenic call", "setting": "Test System: AMES SALMONELLA TYPHIMURIUM, Strain/Indicator: TA98, Metabolic Activation: RAT, LIVER, S-9, KC500 OR PHENOBARBITAL, Method: LIQUID SUSPENSION", "value": "active; positive"}, {"measurement": "mutagenic call", "setting": "[2]", "value": "active; positive"}, {"measurement": "mutagenic call", "setting": "Test System: AMES SALMONELLA TYPHIMURIUM, Strain/Indicator: TA100, Metabolic Activation: RAT, LIVER, S-9, AROCLOR 1254, Method: STANDARD PLATE", "value": "active; positive"}, {"measurement": "mutagenic call", "setting": "Test System: AMES SALMONELLA TYPHIMURIUM, Strain/Indicator: TA100, Metabolic Activation: RAT, LIVER, S-9, KC500 OR PHENOBARBITAL, Method: LIQUID SUSPENSION", "value": "active; positive"}, {"measurement": "mutagenic call", "setting": "Test System: E. COLI, Strain/Indicator: WP2 UVRA, Metabolic Activation: NONE, Method: STANDARD PLATE", "value": "inactive; negative"}, {"measurement": "mutagenic call", "setting": "Test System: E. COLI, Strain/Indicator: WP2 UVRA, Metabolic Activation: RAT, LIVER, S-9, Method: STANDARD PLATE", "value": "inactive; negative"}]}
{"compound": "Cc1c2c(cc3ccccc13)-c1ccccc1C1NC21", "note": "(stereo not drawn)", "values": [{"measurement": "mutagenic call", "setting": "[3]", "value": "active; positive"}, {"measurement": "mutagenic call", "setting": "[1]", "value": "active; positive"}, {"measurement": "mutagenic call", "setting": "[4]", "value": "active; positive"}, {"measurement": "mutagenic call", "setting": "[2]", "value": "active; positive"}, {"measurement": "mutagenic call", "setting": "Test System: AMES SALMONELLA TYPHIMURIUM, Strain/Indicator: TA104, Metabolic Activation: NONE, Method: PREINCUBATION", "value": "active; positive"}]}
